Data on 18 compounds can be found in patent US12091393B2, “Small molecule vaccine adjuvant for enhancing or prolonging immune response” (The Regents of the University of California, priority 2018, dated 2024).

Data set [1] has as its system NF-κB. The data set is described as follows: Measurement of NF-κB activation using THP1-Blue NF-κB cells (SEAP). The format is cell-based. The settings on record: for activity at 5 µM: 20 h, two point normalized, compound 1 as 200%; for NF-κB activity (SAR discussion, in words): evaluated in both the presence and absence of LPS.
Data set [2] has as its system NF-κB. The data set is described as follows: cell-based NF-κB FRET assay. The conditions noted are these: compound + LPS; two point normalized, compound 1 as 200%, LPS (10 ng/mL) as 100%. The source says: Site A was assigned the 4-substituent of thiazole ring, site B was the thiazole ring itself, site C was the central amide bond in the structure, site D was the benzene ring bearing 1,4-carboxyl and sulfamoyl group, site E was the sulfonamide functional group and site F was the amide substituent on the sulfamoyl group.

The subject of data set [3] is THP-1 cells. Kind of data set: Cell viability assay (MTT). The format is cell-based. The settings on record: compound 5 μM alone, 18 h, normalized to DMSO as 100%. Put shortly: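 THP-1 cells in RPMI/10% FBS got compound at a final 5 μM (0.05% DMSO) for 18 h. MTT (0.5 mg/mL) was then added for 4 to 6 h, followed by SDS/HCl lysis overnight. Absorbance was read at 570 nm against 650 nm reference.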

Where [4] appears, read: compound 5 μM + LPS, LPS (10 ng/mL) as 100%, read-out: NF-κB SEAP Compound + LPS % Activation.
Where [5] appears, read: compound 5 μM alone, LPS or DMSO as 100%, read-out: NF-κB SEAP Compound alone % Activation.

“Also recorded” adds a separate entry of the source. Read-outs that look alike come from different tables or passages of the source.

In the case of `Cc1ccc(C)c(-c2csc(C(=O)Nc3ccc(S(=O)(=O)N4CCCCC4)cc3)n2)c1` [Compound 34b, 4-(2,5-dimethylphenyl)-N-(4-(piperidin-1-ylsulfonyl)phenyl)thiazole-2-carboxamide], the figures for the activity at 5 µM in data set [1] (setting [4]) and in data set [1] (setting [5]) were 104% and 98.8%, respectively. For the same compound, in data set [1], the “NF-κB activity (SAR discussion, in words)” value was “weak activity”. Further, the “NF-κB FRET Compound + LPS % Activation” value in data set [2] was found to be 134.57%. Moreover, the “MTT Compound alone % Viability” value in data set [3] came to 91.08%.
The matching figures for `Cc1ccc(C)c(-c2csc(N(C)C(=O)c3ccc(S(=O)(=O)N4CCCCC4)cc3)n2)c1` [Compound 34c, N-(4-(2,5-dimethylphenyl)thiazol-2-yl)-N-methyl-4-(piperidin-1-ylsulfonyl)benzamide]: 105%, 101%, “inactive”, 143.05% and 97.43%.
Consider `Cc1ccc(C)c(-c2csc(NC(=O)c3ccc(S(=O)(=O)N4CCCCC4)cn3)n2)c1` [Compound 46a, N-(4-(2,5-dimethylphenyl)thiazol-2-yl)-5-(piperidin-1-ylsulfonyl)picolinamide], for which the activity at 5 µM worked out at 111% in data set [1] (setting [4]) and 99.2% in data set [1] (setting [5]). In data set [1], the “NF-κB activity (SAR discussion, in words)” value is on record as “none of these modifications at site D or E were tolerated”. For the same compound, in data set [2], the “NF-κB FRET Compound + LPS % Activation” value was found to be 151.90%. In addition, the “MTT Compound alone % Viability” value in data set [3] is 94.46%.
The like results for `Cc1ccc(C)c(-c2csc(NC(=O)c3ccc(S(=O)(=O)N4CCCCC4)nc3)n2)c1` [Compound 46b, N-(4-(2,5-dimethylphenyl)thiazol-2-yl)-6-(piperidin-1-ylsulfonyl)nicotinamide] were, in that order, 115%, 100%, “none of these modifications at site D or E were tolerated”, 146.35% and 88.57%.
`Cc1ccc(C)c(-c2csc(NC(=O)c3ccc(SC4CCCCC4)cc3)n2)c1` [Compound 49a, 4-(cyclohexylthio)-N-(4-(2,5-dimethylphenyl)thiazol-2-yl)benzamide]: the activity at 5 µM in data set [1] (setting [4]) was 114%; in data set [1] (setting [5]), 99.7%. Moreover, the “NF-κB activity (SAR discussion, in words)” value in data set [1] is listed as “none of these modifications at site D or E were tolerated”. Moreover, in data set [2], the “NF-κB FRET Compound + LPS % Activation” value is 139.79%. Also, the “MTT Compound alone % Viability” value in data set [3] worked out at 85.22%.
On to `Cc1ccc(C)c(-c2csc(NC(=O)c3ccc(S(=O)(=O)C4CCCCC4)cc3)n2)c1` [Compound 49b, 4-(cyclohexylsulfonyl)-N-(4-(2,5-dimethylphenyl)thiazol-2-yl)benzamide], for which the values for the activity at 5 µM in data set [1] (setting [4]) and in data set [1] (setting [5]) were 114% and 99.8%, respectively. Besides, the “NF-κB activity (SAR discussion, in words)” value in data set [1] is “none of these modifications at site D or E were tolerated”. Moreover, in data set [2], the “NF-κB FRET Compound + LPS % Activation” value came out at 136.43%. In addition, the “MTT Compound alone % Viability” value in data set [3] is recorded as 81.81%.
Regarding `Cc1ccc(C)c(-c2csc(NC(=O)c3ccc(C(=O)N4CCCCC4)cc3)n2)c1` [Compound 49c, N-(4-(2,5-dimethylphenyl)thiazol-2-yl)-4-(piperidine-1-carbonyl)benzamide], the activity at 5 µM was 109% in data set [1] (setting [4]) and 99.3% in data set [1] (setting [5]). For the same compound, the “NF-κB activity (SAR discussion, in words)” value in data set [1] was “none of these modifications at site D or E were tolerated”. In addition, the “NF-κB FRET Compound + LPS % Activation” value in data set [2] was 134.09%. Also, in data set [3], the “MTT Compound alone % Viability” value is reported as 87.59%.
With `Cc1ccc(C)c(-c2csc(NC(=O)c3cccc(C(=O)N4CCCCC4)c3)n2)c1` [Compound 49d, N-(4-(2,5-dimethylphenyl)thiazol-2-yl)-3-(piperidine-1-carbonyl)benzamide], the activity at 5 µM came to 112% in data set [1] (setting [4]) and 99.6% in data set [1] (setting [5]). Further, the “NF-κB activity (SAR discussion, in words)” value in data set [1] is reported as “none of these modifications at site D or E were tolerated”. The “NF-κB FRET Compound + LPS % Activation” value in data set [2] came to 136.46%. Further, the “MTT Compound alone % Viability” value in data set [3] stood at 88.06%.
The matching figures for `Cc1ccc(C)c(-c2csc(NS(=O)(=O)c3ccc(C(=O)N4CCCCC4)cc3)n2)c1` [Compound 55, N-(4-(2,5-dimethylphenyl)thiazol-2-yl)-4-(piperidine-1-carbonyl)benzenesulfonamide]: 91.7%, 103%, “inactive”, 70.37% and 58.91%.
Regarding `CCCN(CC)S(=O)(=O)c1ccc(C(=O)Nc2nc(-c3cc(C)ccc3C)cs2)cc1` [Compound 58a, N-(4-(2,5-dimethylphenyl)thiazol-2-yl)-4-(N-ethyl-N-propylsulfamoyl)benzamide], the activity at 5 µM in data set [1] (setting [4]) is 217%; in data set [1] (setting [5]), 207%. In data set [1], the “NF-κB activity (SAR discussion, in words)” value is listed as “tolerated; also recorded: active”. The “NF-κB FRET Compound + LPS % Activation” value in data set [2] is 158.36%. The “MTT Compound alone % Viability” value in data set [3] is 73.63%.
For `CCCN(CCC)S(=O)(=O)c1ccc(C(=O)Nc2nc(-c3cc(C)ccc3C)cs2)cc1` [Compound 58b, N-(4-(2,5-dimethylphenyl)thiazol-2-yl)-4-(N,N-dipropylsulfamoyl)benzamide], the activity at 5 µM in data set [1] (setting [4]) was 260%; in data set [1] (setting [5]), 243%. The “NF-κB activity (SAR discussion, in words)” value in data set [1] was “tolerated; also recorded: active”. Further, the “NF-κB FRET Compound + LPS % Activation” value in data set [2] is on record as 190.52%. The “MTT Compound alone % Viability” value in data set [3] turned out to be 83.69%.
The like results for `CCCCN(CCCC)S(=O)(=O)c1ccc(C(=O)Nc2nc(-c3cc(C)ccc3C)cs2)cc1` [Compound 58c, 4-(N,N-dibutylsulfamoyl)-N-(4-(2,5-dimethylphenyl)thiazol-2-yl)benzamide] were, in that order, 105%, 103%, “lost activity”, 104.47% and 86.41%.
In the case of `CCN(c1ccccc1)S(=O)(=O)c1ccc(C(=O)Nc2nc(-c3cc(C)ccc3C)cs2)cc1` [Compound 58d, N-(4-(2,5-dimethylphenyl)thiazol-2-yl)-4-(N-ethyl-N-phenylsulfamoyl)benzamide], the activity at 5 µM in data set [1] (setting [4]) was determined as 89.8%; in data set [1] (setting [5]), 105%. Also, the “NF-κB activity (SAR discussion, in words)” value in data set [1] was “inactive”. In data set [2], the “NF-κB FRET Compound + LPS % Activation” value was 74.73%. Also, in data set [3], the “MTT Compound alone % Viability” value worked out at 81.42%.
With `Cc1ccc(C)c(-c2csc(NC(=O)c3ccc(S(=O)(=O)NC4CCCCC4)cc3)n2)c1` [Compound 58e, 4-(N-cyclohexylsulfamoyl)-N-(4-(2,5-dimethylphenyl)thiazol-2-yl)benzamide], the activity at 5 µM in data set [1] (setting [4]) was 94.5%; in data set [1] (setting [5]) it was 98.3%. For the same compound, in data set [1], the “NF-κB activity (SAR discussion, in words)” value was “inactive”. In addition, in data set [2], the “NF-κB FRET Compound + LPS % Activation” value was determined as 52.23%. Besides, the “MTT Compound alone % Viability” value in data set [3] turned out to be 93.65%.
With `Cc1ccc(C)c(-c2csc(NC(=O)c3ccc(S(=O)(=O)N4CCN(C(=O)OC(C)(C)C)CC4)cc3)n2)c1` [Compound 58f, tert-butyl 4-((4-((4-(2,5-dimethylphenyl)thiazol-2-yl)carbamoyl)phenyl)sulfonyl)piperazine-1-carboxylate], the activity at 5 µM was 105% in data set [1] (setting [4]) and 101% in data set [1] (setting [5]). Also, in data set [1], the “NF-κB activity (SAR discussion, in words)” value is “inactive”. The “NF-κB FRET Compound + LPS % Activation” value in data set [2] is 95.64%. The “MTT Compound alone % Viability” value in data set [3] came to 81.23%.
In the case of `CCOC1CCN(S(=O)(=O)c2ccc(C(=O)Nc3nc(-c4cc(C)ccc4C)cs3)cc2)CC1` [Compound 58g, N-(4-(2,5-dimethylphenyl)thiazol-2-yl)-4-((4-ethoxypiperidin-1-yl)sulfonyl)benzamide], the values for the activity at 5 µM in data set [1] (setting [4]) and in data set [1] (setting [5]) were 178% and 200%, respectively. Also, in data set [1], the “NF-κB activity (SAR discussion, in words)” value is recorded as “active”. Moreover, the “NF-κB FRET Compound + LPS % Activation” value in data set [2] is recorded as 189.46%. Moreover, the “MTT Compound alone % Viability” value in data set [3] came to 112.63%.
With `CCCC1CCN(S(=O)(=O)c2ccc(C(=O)Nc3nc(-c4cc(C)ccc4C)cs3)cc2)CC1` [Compound 58h, N-(4-(2,5-dimethylphenyl)thiazol-2-yl)-4-((4-propylpiperidin-1-yl)sulfonyl)benzamide], the values for the activity at 5 µM in data set [1] (setting [4]) and in data set [1] (setting [5]) were 248% and 517%, respectively. Further, in data set [1] (compound alone, without LPS), the “NF-κB activity when tested alone (in words)” value is listed as “very potent”. Further, the “NF-κB activity (SAR discussion, in words)” value in data set [1] is “active; also recorded: most potent”. Also, in data set [2], the “NF-κB FRET Compound + LPS % Activation” value is recorded as 218.16%. For the same compound, the “MTT Compound alone % Viability” value in data set [3] amounted to 111.27%.
As for `Cc1ccc(C)c(-c2csc(NC(=O)c3ccc(S(=O)(=O)N4CCNCC4)cc3)n2)c1` [Compound 58i, N-(4-(2,5-dimethylphenyl)thiazol-2-yl)-4-(piperazin-1-ylsulfonyl)benzamide], the results for the activity at 5 µM in data set [1] (setting [4]) and in data set [1] (setting [5]) were 104% and 101%, respectively. The “NF-κB activity (SAR discussion, in words)” value in data set [1] is “inactive”. For the same compound, the “NF-κB FRET Compound + LPS % Activation” value in data set [2] was found to be 101.27%. The “MTT Compound alone % Viability” value in data set [3] was 75.86%.
